Results published in patent publication US20160355483A1, “COMPOUND BINDING TO PPARG BUT NOT ACTING AS PROMOTER AND PHARMACEUTICAL COMPOSITION FOR TREATING PPARG-RELATED DISEASES CONTAINING SAME AS ACTIVE INGREDIENT” (Hyundai Pharm Co., Ltd., priority 2014, published 2016).

Target: T1, PPARG (peroxisome proliferator activated receptor-gamma), GST-PPARG-LBD (Homo sapiens, UniProt P37231)
T1 construct: 15 μL of 5 nM GST-PPARG-LBD and 5 nM Tb-GST-antibody were added; purchased Invitrogen PV4894
T1 sequence (P37231 238-503 limits assumed): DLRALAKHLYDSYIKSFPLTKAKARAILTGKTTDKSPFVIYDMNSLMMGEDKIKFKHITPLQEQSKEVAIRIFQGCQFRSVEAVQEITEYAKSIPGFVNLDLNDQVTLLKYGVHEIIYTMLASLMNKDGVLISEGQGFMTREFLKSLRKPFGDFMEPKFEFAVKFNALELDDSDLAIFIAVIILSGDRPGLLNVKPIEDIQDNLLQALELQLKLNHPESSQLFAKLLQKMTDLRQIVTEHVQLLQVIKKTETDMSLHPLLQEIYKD
Assay: LanthaScreen TR-FRET PPARG Competitive Binding Assay
Parameters: key: “+” indicates the degree of the binding activity, and as the number of “+” increases, the binding activity is stronger; ++: “+” indicates the degree of the binding activity, and as the number of “+” increases, the binding activity is stronger; +++: “+” indicates the degree of the binding activity, and as the number of “+” increases, the binding activity is stronger; ++++: “+” indicates the degree of the binding activity, and as the number of “+” increases, the binding activity is stronger
Conditions: degree of binding activity
Outline: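 GST-tagged human PPARG LBD in a TR-FRET competitive binding kit, 1 h at room temperature. Read-out is the 518/488 nm emission ratio (340 nm excitation); activity = 100% − compound ratio/vehicle ratio, compared with rosiglitazone.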

Binding assay (1 μLM) | Compound
++++ | C[C@H](NC(=O)c1ccc2c(c1)OCCN2Cc1ccc(-c2ccccc2C(=O)O)cc1)c1ccc2ccccc2c1 [Example 87, (S)-4′-((7-((1-(naphthalene-2-yl)ethyl)carbamoyl)-2H-benzo[b][1,4]oxazine-4(3H)-yl)methyl)-[1,1′-biphenyl]-2-carboxylic acid]
+ | O=C(NCc1ccccn1)c1ccc2c(c1)OCCN2Cc1ccc(-c2ccccc2C(=O)O)cc1 [Example 88, 4′-((7-((pyridine-2-ylmethyl)carbamoyl)-2H-benzo[b][1,4]oxazine-4(3H)-yl)methyl)-[1,1′-biphenyl]-2-carboxylic acid]
+ | O=C(NCc1cccnc1)c1ccc2c(c1)OCCN2Cc1ccc(-c2ccccc2C(=O)O)cc1 [Example 89, 4′-((7-((pyridine-3-ylmethyl)carbamoyl)-2H-benzo[b][1,4]oxazine-4(3H)-yl)methyl)-[1,1′-biphenyl]-2-carboxylic acid]
+ | O=C(NCc1ccncc1)c1ccc2c(c1)OCCN2Cc1ccc(-c2ccccc2C(=O)O)cc1 [Example 90, 4′-((7-((pyridine-4-ylmethyl)carbamoyl)-2H-benzo[b][1,4]oxazine-4(3H)-yl)methyl)-[1,1′-biphenyl]-2-carboxylic acid]
+++ | O=C(NCc1ccccc1)c1ccc2c(c1)OCCN2Cc1ccc(-c2ccccc2C(=O)O)cc1 [Example 91, 4′-((7-(benzylcarbamoyl)-2H-benzo[b][1,4]oxazine-4(3H)-yl)methyl)-[1,1′-biphenyl]-2-carboxylic acid]
+++ | O=C(NCc1ccccc1Br)c1ccc2c(c1)OCCN2Cc1ccc(-c2ccccc2C(=O)O)cc1 [Example 92, 4′-((7-((2-bromobenzyl)carbamoyl)-2H-benzo[b][1,4]oxazine-4(3H)-yl)methyl)-[1,1′-biphenyl]-2-carboxylic acid]
++ | O=C(NCc1ccc2c(c1)OCCO2)c1ccc2c(c1)OCCN2Cc1ccc(-c2ccccc2C(=O)O)cc1 [Example 93, 4′-((7-(((2,3-dihydrobenzo[b][1,4]dioxin-6-yl)methyl)carbamoyl)-2H-benzo[b][1,4]oxazine-4(3H)-yl)methyl)-[1,1′-biphenyl]-2-carboxylic acid]
++ | C[C@@H](NC(=O)c1ccc2c(c1)OCCN2Cc1ccc(-c2ccccc2C(N)=O)cc1)c1ccc(C#N)cc1 [Example 94, (R)-4-((2′-carbamoyl-[1,1′-biphenyl]-4-yl)methyl)-N-(1-(4-cyanophenyl)ethyl)-3,4-dihydro-2H-benzo[b][1,4]oxazine-7-carboxamide]
+++ | C[C@H](NC(=O)c1ccc2c(c1)OCCN2Cc1ccc(-c2ccccc2C(N)=O)cc1)c1cccc(F)c1 [Example 95, (S)-4-((2′-carbamoyl-[1,1′-biphenyl]-4-yl)methyl)-N-(1-(3-fluorophenyl)ethyl)-3,4-dihydro-2H-benzo[b][1,4]oxazine-7-carboxamide]
+ | NC(=O)c1ccccc1-c1ccc(CN2CCOc3cc(C(=O)NCc4cccnc4)ccc32)cc1 [Example 97, 4-((2′-carbamoyl-[1,1′-biphenyl]-4-yl)methyl)-N-(pyridine-3-ylmethyl)-3,4-dihydro-2H-benzo[b][1,4]oxazine-7-carboxamide]
+ | NC(=O)c1ccccc1-c1ccc(CN2CCOc3cc(C(=O)NCc4ccncc4)ccc32)cc1 [Example 98, 4-((2′-carbamoyl-[1,1′-biphonyl]-4-yl)methyl)-N-(pyridine-4-ylmethyl)-3,4-dihydro-2H-benzo[b][1,4]oxazine-7-carboxamide]
+++ | C[C@H](NC(=O)c1ccc2c(c1)OCCN2Cc1ccc(-c2ccccc2C(N)=O)cc1)c1ccc(SC(F)(F)F)cc1 [Example 99, (S)-4-((2′-carbamoyl-[1,1′-biphenyl]-4-yl)methyl)-N-(1-(4-((trifluoromethyl)thio)phenyl)ethyl)-3,4-dihydro-2H-benzo[b][1,4]oxazine-7-carboxamide]
++ | NC(=O)c1ccccc1-c1ccc(CN2CCOc3cc(C(=O)NCc4ccccc4)ccc32)cc1 [Example 100, N-benzyl-4-((2′-carbamoyl-[1,1′-biphenyl]-4-yl)methyl)-3,4-dihydro-2H-benzo[b][1,4]oxazine-7-carboxamide]
++ | NC(=O)c1ccccc1-c1ccc(CN2CCOc3cc(C(=O)NCc4ccccc4Br)ccc32)cc1 [Example 101, N-(2-bromobenzyl)-4-((2′-carbamoyl-[1,1′-biphenyl]-4-yl)methyl)-3,4-dihydro-2H-benzo[b][1,4]oxazine-7-carboxamide]
+ | NC(=O)c1ccccc1-c1ccc(CN2CCOc3cc(C(=O)NCc4ccc5c(c4)OCCO5)ccc32)cc1 [Example 102, 4-((2′-carbamoyl-[1,1′-biphenyl]-4-yl)methyl)-N-((2,3-dihydrobenzo[b][1,4]dioxin-6-yl)methyl)-3,4-dihydro-2H-benzo[b][1,4]oxazine-7-carboxamide]
++++ | C[C@H](NC(=O)c1ccc2c(c1)CCCN2Cc1ccc(-c2ccccc2C(=O)O)cc1F)c1ccccc1 [Example 106]
+++ | C[C@H](NC(=O)c1ccc2c(c1)CCCN2Cc1ccc(-c2ccccc2C(N)=O)cc1F)c1ccccc1 [Example 107, (S)-1-((2′-carbamoyl-3-fluoro-[1,1′-biphenyl]-4-yl)methyl)-N-(1-phenylethyl)-1,2,3,4-tetrahydroquinoline-6-carboxamide]
++++ | C[C@H](NC(=O)c1ccc2c(c1)CCCN2Cc1ccc(-c2ccccc2C(=O)O)cc1F)c1ccc2ccccc2c1 [Example 108, (S)-3′-fluoro-4′-((6-((1-(naphthalene-2-yl)ethyl)carbamoyl)-3,4-dihydroquinoline-1(28)-yl)methyl)-[1,1′-biphenyl]-2-carboxylic acid]
+++ | C[C@H](NC(=O)c1ccc2c(c1)CCCN2Cc1ccc(-c2ccccc2C(=O)O)cc1F)c1ccc([N+](=O)[O-])cc1 [Example 109, (S)-3′-fluoro-4′-((6-((1-(4-nitrophenyl)ethyl)carbamoyl)-3,4-dihydroquinoline-1(2H)-yl)methyl)-[1,1′-biphenyl]-2-caboxylic acid]
++++ | Cc1ccc([C@H](C)NC(=O)c2ccc3c(c2)CCCN3Cc2ccc(-c3ccccc3C(=O)O)cc2F)cc1F [Example 111, (S)-3′-fluoro-4′-((6-((1-(3-fluoro-4-methylphenyl)ethyl)carbamoyl)-3,4-dihydroquinoline-1(2H)-yl)methyl)-[1,1′-biphenyl]-2-caboxylic acid]
+++ | C[C@H](NC(=O)c1ccc2c(c1)CCCN2Cc1ccc(-c2ccccc2C(N)=O)cc1F)c1ccc(C#N)cc1 [Example 112, (S)-1-((2′-carbamoyl-3-fluoro-[1,1′-biphenyl]-4-yl)methyl)-N-(1-(4-cyanophenyl)ethyl)-1,2,3,4-tetrahydroquinoline-6-carboxamide]
+++ | Cc1ccc([C@H](C)NC(=O)c2ccc3c(c2)CCCN3Cc2ccc(-c3ccccc3C(N)=O)cc2F)cc1F [Example 114, (S)-1-((2′-carbamoyl-3-fluoro-[1,1′-biphenyl]-4-yl)methyl)-N-(1-(3-fluoro-4-methylphenyl)ethyl)-1,2,3,4-tetrahydroquinoline-6-carboxamide]
+++ | C[C@H](NC(=O)c1ccc2c(c1)CCCN2Cc1cccc(-c2ccccc2C(=O)O)c1)c1ccccc1 [Example 116, (S)-3′-((6-((1-phenylethyl)carbamoyl)-3,4-dihydroquinoline-1(2H)-yl)methyl)-[1,1′-biphenyl]-2-carboxylic acid]
+++ | C[C@H](NC(=O)c1ccc2c(c1)CCCN2Cc1cccc(-c2ccccc2C(N)=O)c1)c1ccccc1 [Example 117, (S)-1-((2′-carbamoyl-[1,1′-biphenyl]-3-yl)methyl)-N-(1-phenylethyl)-1,2,3,4-tetrahydroquinoline-6-carboxamide]
++ | C[C@H](NC(=O)c1ccc2c(c1)CCCN2Cc1cccc(-c2ccccc2C(=O)O)c1)c1ccc([N+](=O)[O-])cc1 [Example 119, (S)-3′-((6-((1-(4-nitrophenyl)ethyl)carbamoyl)-3,4-dihydroquinoline-1(2H)-yl)methyl)-[1,1′-biphenyl]-2-carboxylic acid]

Compound | Binding assay (1 μLM)
C[C@H](NC(=O)c1ccc2c(c1)OCCN2Cc1ccc(-c2ccccc2C(=O)[O-])cc1)c1ccccc1.[Na+] [Example 103, sodium (S)-4′-((7-((1-phenylethyl)carbamoyl)-2H-benzo[b][1,4]oxazine-4(3H)-yl)methyl)-[1,1′-biphenyl]-2-carboxylate] | ++
C[C@H](NC(=O)c1ccc2c(c1)OCCN2Cc1ccc(-c2ccccc2C(=O)[O-])cc1)c1ccc([N+](=O)[O-])cc1.[Na+] [Example 105, sodium (S)-4′-((7-((1-(4-nitrophenyl)ethyl)carbamoyl)-2-benzo[b][1,4]oxazine-4(3H)-yl)methyl)-[1,1′-biphenyl]-2-carboxylate] | +
